In the assay the target is T1, 5-HT3 receptor (Rattus norvegicus, UniProt P35563).
T1 construct: Brain cortices are obtained from male rats and a membrane fraction prepared by standard techniques; from tissue; host or cells: male rat brain cortex, membrane fraction
T1 sequence (P35563 24-483): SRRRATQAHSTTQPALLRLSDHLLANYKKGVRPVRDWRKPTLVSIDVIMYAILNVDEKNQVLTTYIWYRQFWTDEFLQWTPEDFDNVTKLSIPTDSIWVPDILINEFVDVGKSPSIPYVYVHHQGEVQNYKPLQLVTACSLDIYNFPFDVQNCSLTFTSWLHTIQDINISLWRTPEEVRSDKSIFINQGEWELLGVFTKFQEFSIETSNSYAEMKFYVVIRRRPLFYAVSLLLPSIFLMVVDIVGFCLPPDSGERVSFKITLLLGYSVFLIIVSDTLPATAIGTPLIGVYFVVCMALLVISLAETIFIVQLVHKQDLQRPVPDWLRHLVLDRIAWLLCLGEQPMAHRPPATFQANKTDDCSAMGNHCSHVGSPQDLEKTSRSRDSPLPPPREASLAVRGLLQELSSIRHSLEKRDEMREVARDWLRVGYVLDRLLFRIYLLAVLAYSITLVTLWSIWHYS
The assay is described as follows: Serotonin (5-HT3) radioligand receptor binding assay, [3H]-GR65630. As for the experimental part: 5-HT3 antagonism can be determined by the radioligand receptor binding assay as described herein and in the in vivo Bezold-Jarisch reflex procedure.
GR65630 binds to the 5-HT3 receptor. Brain cortices are obtained from male rats and a membrane fraction prepared by standard techniques. 0.04 mg of membrane prep is incubated with 0.2 nM [^3 H]-GR656630 for 60 minutes at 22° C. […] Membranes are filtered and washed 3 times and the filters are counted to determine [3H]-GR65630 specifically bound.*
*Literature References: Kilpatrick GJ, Jones BJ and Tyers MG. Identification and distribution of 5-HT3 receptors in rat brain using radioligand binding. Nature, 330 : 746-748, 1987.

Molecule `Cc1nc[nH]c1CCC(=O)c1cn(C)c2ccccc12` [GR65630] returned a Kd of 2.46 nM. The “% Specific Binding” value ([3H]-GR65630, non-specific binding in the presence of 1 uM ICS 205-930) amounted to 70%.

Consider `c1ccc2nc(N3CCNCC3)ccc2c1` [Quipazine], for which the IC50 is 0.5 nM and affinity was put at a Ki of 0.18 nM.

`COc1ccc2[nH]cc(C3=CCNCC3)c2c1` [RU24969] displayed an IC50 of 320 nM and a Ki of 1850 nM.

`COc1cc(N)c(Cl)cc1C(=O)NC1CN2CCC1CC2` (centres unmarked) [Zacopride] returned an IC50 of 0.55 nM and a Ki of 0.18 nM.

Usually Kd stands for the concentration at which binding is half-saturated. The term IC50 denotes the concentration that gives 50% inhibition. Read a high IC50 as weaker potency. Broadly, the Ki is the dissociation constant of the complex between target and ligand, obtained from inhibition or displacement. Low readings indicate higher affinity, high ones lower affinity.

For the origin of these results see patent publication US5196547A, “Meso-azacyclic amides of imidazopyridine carboxylic acids and analogs thereof” (G. D. Searle & Co., priority 1992, dated 1993).
